# Reference: PMC11094793, “Discovery of LLC0424 as a Potent and Selective in Vivo NSD2 PROTAC Degrader” (Journal of Medicinal Chemistry, 2024)
# Key:
# [1] = test system: RPMI-8402 cells; test: Cell viability assay (CellTiter-Glo, 7 days), RPMI-8402; type: cell-based, human; details: Homo sapiens, 168 h, read-out: IC50 (growth, cell viability)
# Description: Cells were plated in 50 μL of the corresponding media in 96-well plates. A 2-fold dilution series of 2* concentrated LLC0424 was prepared in a medium with the highest concentration being 60 μM. Then 50 μL of the 2× compound-containing mixture was added to each well with 6 replicates for each concentration, reaching 1× concentration, with the highest concentration being 30 μM. The plate was incubated for 7 days. At the end point, the CellTiter-Glo assay (Promega) was then performed according to the manufacturer’s instruction to determine cell proliferation. The luminescence signal intensity of each well was acquired on an Infinite M1000Pro microplate reader and the data was analyzed using GraphPad Prism software (GraphPad Software).
# [2] = target: T1, NSD2 (Homo sapiens, UniProt O96028, E1099K); test: Pharmacodynamic assessment in SEM xenograft model (IHC, Western blot); type: in vivo, mice; details: 60 mg/kg iv, 5 consecutive days, versus vehicle
# T1 construct: from tissue; host or cells: SEM subcutaneous xenograft tumours in CB17 SCID mice
# T1 sequence (O96028 1-1365 E1099K): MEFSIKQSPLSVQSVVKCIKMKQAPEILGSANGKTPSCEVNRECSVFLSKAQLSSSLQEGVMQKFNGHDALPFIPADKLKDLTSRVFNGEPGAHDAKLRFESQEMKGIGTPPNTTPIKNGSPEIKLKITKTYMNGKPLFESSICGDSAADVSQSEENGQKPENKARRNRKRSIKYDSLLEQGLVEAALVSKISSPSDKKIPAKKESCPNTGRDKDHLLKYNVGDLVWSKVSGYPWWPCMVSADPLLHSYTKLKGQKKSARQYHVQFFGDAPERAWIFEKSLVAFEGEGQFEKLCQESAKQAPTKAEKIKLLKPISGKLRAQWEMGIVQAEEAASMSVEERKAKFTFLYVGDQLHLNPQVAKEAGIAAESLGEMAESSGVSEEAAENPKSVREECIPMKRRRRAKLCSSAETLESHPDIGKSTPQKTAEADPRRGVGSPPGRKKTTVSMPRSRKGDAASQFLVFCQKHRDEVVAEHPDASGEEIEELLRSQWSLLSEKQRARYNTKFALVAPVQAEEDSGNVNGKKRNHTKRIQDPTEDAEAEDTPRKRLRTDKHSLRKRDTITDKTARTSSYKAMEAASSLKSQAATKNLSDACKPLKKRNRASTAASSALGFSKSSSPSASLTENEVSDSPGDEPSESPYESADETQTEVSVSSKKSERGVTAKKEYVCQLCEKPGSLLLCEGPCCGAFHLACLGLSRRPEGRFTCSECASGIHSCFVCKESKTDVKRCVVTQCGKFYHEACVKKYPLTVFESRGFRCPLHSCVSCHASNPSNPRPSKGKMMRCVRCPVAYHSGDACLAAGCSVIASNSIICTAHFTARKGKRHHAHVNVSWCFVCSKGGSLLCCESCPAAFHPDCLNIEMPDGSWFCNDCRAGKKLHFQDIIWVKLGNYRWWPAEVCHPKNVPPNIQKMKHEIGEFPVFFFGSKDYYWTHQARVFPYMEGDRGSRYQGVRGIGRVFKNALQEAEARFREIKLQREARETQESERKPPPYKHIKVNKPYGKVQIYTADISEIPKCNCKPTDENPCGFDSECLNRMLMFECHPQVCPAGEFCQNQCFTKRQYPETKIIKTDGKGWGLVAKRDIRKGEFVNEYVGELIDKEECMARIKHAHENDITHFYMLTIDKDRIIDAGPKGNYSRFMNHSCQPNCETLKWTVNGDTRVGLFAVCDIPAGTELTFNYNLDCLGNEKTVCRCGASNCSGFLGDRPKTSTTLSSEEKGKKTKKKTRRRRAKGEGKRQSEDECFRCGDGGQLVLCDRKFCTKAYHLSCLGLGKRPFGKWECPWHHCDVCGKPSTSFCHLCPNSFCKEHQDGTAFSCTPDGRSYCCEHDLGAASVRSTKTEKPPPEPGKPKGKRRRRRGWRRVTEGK
# Description: We finally performed pharmacodynamic assessment of LLC0424 in both the SEM and 22RV1 xenograft model. Based on the solubility of LLC0424 and the tolerance of the mice, we chose 60 mg/kg as the dosage for the pharmacodynamic study. LLC0424 was administrated by intravenous (iv) or intraperitoneal (ip) injection at a dose of 60 mg/kg for 5 consecutive days. The tumor tissues were harvested at day 5 and subjected to histology and Western blot analysis (Figure 7A, and SI, Figure S6A).
# First, 6–8 weeks old male CB17 severe combined immunodeficiency (SCID) mice were procured from the University of Michigan breeding colony. Subcutaneous tumors were established at both sides of the dorsal flank of mice. Tumors were measured at least biweekly using digital calipers following the formula (π/6) (L × W2), where L is length and W is width of the tumor. At the end of the studies, mice were sacrificed and tumors extracted. For each tumor, a part is […] followed by embedding in paraffin to make tissue blocks. The blocks were sectioned at […] for immunohistochemistry analysis. Another part is made into tissue lysates for Western blotting analysis. The University of Michigan Institutional Animal Care and Use Committee (IACUC) approved all in vivo studies. […]
structure (smiles),measurement,setting,value
"O=C1CCC(N2C(=O)c3ccc(N4CCC(NC(=O)c5ccc(NC(=O)c6ccc(CN(C(=O)c7ccc8c(c7)OCC(=O)N8)C7CC7)cc6)cc5)CC4)cc3C2=O)C(=O)N1 (centres unmarked) [compound 10l, N-Cyclopropyl-N-(4-((4-((1-(2-(2,6-dioxopiperidin-3-yl)-1,3-dioxoisoindolin-5-yl)piperidin-4-yl)carbamoyl)phenyl)carbamoyl)benzyl)-3-oxo-3,4-dihydro-2H-benzo[b][1,4]oxazine-7-carboxamide]",IC50,[1],560 nM
same,NSD2 level in tumor tissue,[2],significantly downregulated
